Experiment [1] has as its target T1, human NHE3 (Homo sapiens, UniProt P48764).
T1 sequence (P48764 26-834): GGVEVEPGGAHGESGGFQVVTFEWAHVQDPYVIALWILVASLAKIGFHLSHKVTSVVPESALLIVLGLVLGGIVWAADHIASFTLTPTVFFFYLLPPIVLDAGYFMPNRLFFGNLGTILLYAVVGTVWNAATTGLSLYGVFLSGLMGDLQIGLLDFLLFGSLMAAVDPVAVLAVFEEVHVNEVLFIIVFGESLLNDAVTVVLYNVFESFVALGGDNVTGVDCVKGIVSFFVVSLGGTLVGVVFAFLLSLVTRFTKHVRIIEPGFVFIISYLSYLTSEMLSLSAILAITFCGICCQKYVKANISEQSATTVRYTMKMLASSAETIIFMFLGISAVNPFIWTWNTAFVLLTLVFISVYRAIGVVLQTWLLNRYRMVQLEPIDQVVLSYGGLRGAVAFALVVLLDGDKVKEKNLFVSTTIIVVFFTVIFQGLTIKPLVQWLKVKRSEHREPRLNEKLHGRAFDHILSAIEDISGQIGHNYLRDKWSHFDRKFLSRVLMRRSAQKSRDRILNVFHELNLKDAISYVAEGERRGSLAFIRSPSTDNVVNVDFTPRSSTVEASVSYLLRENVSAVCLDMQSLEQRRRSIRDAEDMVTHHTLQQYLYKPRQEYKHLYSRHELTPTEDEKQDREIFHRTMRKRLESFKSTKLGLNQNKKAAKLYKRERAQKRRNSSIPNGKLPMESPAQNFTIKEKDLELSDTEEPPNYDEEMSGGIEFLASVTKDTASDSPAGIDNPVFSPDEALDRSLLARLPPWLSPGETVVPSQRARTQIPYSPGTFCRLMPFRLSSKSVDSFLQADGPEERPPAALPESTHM
Kind of experiment: Cell-based assay of NHE-3 activity (pre-incubation inhibition), human. The note with it: for IC50: PS120 fibroblasts stably expressing human NHE3, 10 min pre-incubation with 0-30 μM test compound, read-out: pIC50 (human Preincubation assay) (converted); for % inhibition (human Preincubation assay): PS120 fibroblasts stably expressing human NHE3, pre-incubation with test compound.

The target in experiment [2] is T1, human NHE3. Kind of experiment: Cell-based assay of NHE-3 activity (persistent inhibition), human. As to conditions: PS120 fibroblasts stably expressing human NHE3, 60 min incubation then washout; for IC50: read-out: pIC50 (human Persistence assay) (converted).

Turning to `O=C(NCCCCNC(=O)NCCOCCOCCNS(=O)(=O)c1ccc(O[C@H]2c3cc(F)ccc3C[C@@H]2N2CCCCC2)cc1)NCCOCCOCCNS(=O)(=O)c1ccc(O[C@H]2c3cc(F)ccc3C[C@@H]2N2CCCCC2)cc1` [Example 23], at human NHE3 [1], the IC50 was less than 100 nM and the “% inhibition (human Preincubation assay)” value was “C (>70%)”. For the same compound, at human NHE3 [2], the “% inhibition (human Persistence assay)” value is given as “C (>70%)” and the IC50 was 100 to 1000 nM.

Consider `CN(C)[C@H]1Cc2c(Cl)cc(Cl)cc2[C@@H]1Oc1ccc(S(=O)(=O)NCCOCCOCCNC(=O)C(C)(C)C(=O)NCCOCCOCCNS(=O)(=O)c2ccc(O[C@H]3c4cc(Cl)cc(Cl)c4C[C@@H]3N(C)C)cc2)cc1` [Example 36], for which, at human NHE3 [1], the IC50 is 100 to 1000 nM and the “% inhibition (human Preincubation assay)” value is reported as “C (>70%)”. On human NHE3 [2], the “% inhibition (human Persistence assay)” value was “C (>70%)” and the IC50 was 100 to 1000 nM.

On to `CN(C)[C@H]1Cc2ccccc2[C@@H]1Oc1ccc(S(=O)(=O)NCCOCCOCCNC(=O)NCCCCNC(=O)NCCOCCOCCNS(=O)(=O)c2ccc(O[C@H]3c4ccccc4C[C@@H]3N(C)C)cc2)cc1` [Example 20], for which, at human NHE3 [1], the IC50 was less than 100 nM and the “% inhibition (human Preincubation assay)” value is “C (>70%)”. Moreover, on human NHE3 [2], the “% inhibition (human Persistence assay)” value was “B (40-70%)” and the IC50 was less than 100 nM.

As for `CN(C)[C@H]1Cc2ccc(Cl)cc2[C@@H]1Oc1ccc(S(=O)(=O)NCCOCCOCCNC(=O)NCCCCNC(=O)NCCOCCOCCNS(=O)(=O)c2ccc(O[C@H]3c4cc(Cl)ccc4C[C@@H]3N(C)C)cc2)cc1` [Example 21], on human NHE3 [1], the IC50 was less than 100 nM and the “% inhibition (human Preincubation assay)” value is “C (>70%)”. Moreover, on human NHE3 [2], the “% inhibition (human Persistence assay)” value is given as “C (>70%)” and the IC50 was less than 100 nM.

Turning to `O=C(NCCCCNC(=O)NCCOCCOCCNS(=O)(=O)c1ccc(O[C@H]2c3cc(Cl)cc(F)c3C[C@@H]2N2CCCCC2)cc1)NCCOCCOCCNS(=O)(=O)c1ccc(O[C@H]2c3cc(Cl)cc(F)c3C[C@@H]2N2CCCCC2)cc1` [Example 24], on human NHE3 [1], the IC50 is less than 100 nM and the “% inhibition (human Preincubation assay)” value is “C (>70%)”. Moreover, on human NHE3 [2], the “% inhibition (human Persistence assay)” value is “C (>70%)” and the IC50 was less than 100 nM.

With `O=C(NCCCCNC(=O)NCCOCCOCCNS(=O)(=O)c1ccc(O[C@H]2c3ccccc3C[C@@H]2N2CCCCC2)cc1)NCCOCCOCCNS(=O)(=O)c1ccc(O[C@H]2c3ccccc3C[C@@H]2N2CCCCC2)cc1` [Example 14], on human NHE3 [1], the IC50 is less than 100 nM and the “% inhibition (human Preincubation assay)” value is “C (>70%)”. Further, on human NHE3 [2], the “% inhibition (human Persistence assay)” value was “C (>70%)” and the IC50 was greater than 1000 nM.

Take `CN(C)[C@H]1Cc2c(Cl)cc(Cl)cc2[C@@H]1Oc1ccc(S(=O)(=O)NCCOCCOCCNC(=O)CCC(C)(N)CCC(=O)NCCOCCOCCNS(=O)(=O)c2ccc(O[C@H]3c4cc(Cl)cc(Cl)c4C[C@@H]3N(C)C)cc2)cc1` [Example 11, 4-amino-N1,N7-bis(2-(2-(2-(4-((1S,2S)-4,6-dichloro-2-(dimethylamino)-2,3-dihydro-1H-inden-1-yloxy)phenylsulfonamido)ethoxy)ethoxy)ethyl)-4-methylheptanediamide]: on human NHE3 [1], the IC50 was less than 100 nM and the “% inhibition (human Preincubation assay)” value is on record as “C (>70%)”. For the same compound, at human NHE3 [2], the “% inhibition (human Persistence assay)” value is listed as “B (40-70%)” and the IC50 is less than 100 nM.

On to `O=C(NCCCCNC(=O)NCCOCCOCCNC(=O)Nc1cccc(O[C@H]2c3ccccc3C[C@@H]2N2CCCCC2)c1)NCCOCCOCCNC(=O)Nc1cccc(O[C@H]2c3ccccc3C[C@@H]2N2CCCCC2)c1` [Example 13, 1-{2-[2-(2-{[(3-{[(1S,2S)-2-(piperidin-1-yl)-2,3-dihydro-1H-inden-1-yl]oxy}phenyl)carbamoyl]amino}ethoxy)ethoxy]ethyl}-3-{4-[({2-[2-(2-{[(3-{[(1S,2S)-2-(piperidin-1-yl)-2,3-dihydro-1H-inden-1-yl]oxy}phenyl)carbamoyl]amino}ethoxy)ethoxy]ethyl}carbamoyl)amino]butyl}urea], for which, at human NHE3 [1], the IC50 is greater than 1000 nM and the “% inhibition (human Preincubation assay)” value is recorded as “C (>70%)”. At human NHE3 [2], the “% inhibition (human Persistence assay)” value is recorded as “A (NHE3 <40%)” and the IC50 was greater than 1000 nM.
